The source of these data is paper PMC3322975 (The Journal of Biological Chemistry, 2012).

Usually EC50 stands for the midpoint of the concentration-response curve. A low value points to an effect from little substance.

The target in the experiment is Kv7.2/7.3 M-channel (Homo sapiens, UniProt O43525+O43526). Description: single-channel recording, excised inside-out patch. The experiment is classed as cell-based.
Chain of Kv7.2/7.3 M-channel (O43526 whole entry): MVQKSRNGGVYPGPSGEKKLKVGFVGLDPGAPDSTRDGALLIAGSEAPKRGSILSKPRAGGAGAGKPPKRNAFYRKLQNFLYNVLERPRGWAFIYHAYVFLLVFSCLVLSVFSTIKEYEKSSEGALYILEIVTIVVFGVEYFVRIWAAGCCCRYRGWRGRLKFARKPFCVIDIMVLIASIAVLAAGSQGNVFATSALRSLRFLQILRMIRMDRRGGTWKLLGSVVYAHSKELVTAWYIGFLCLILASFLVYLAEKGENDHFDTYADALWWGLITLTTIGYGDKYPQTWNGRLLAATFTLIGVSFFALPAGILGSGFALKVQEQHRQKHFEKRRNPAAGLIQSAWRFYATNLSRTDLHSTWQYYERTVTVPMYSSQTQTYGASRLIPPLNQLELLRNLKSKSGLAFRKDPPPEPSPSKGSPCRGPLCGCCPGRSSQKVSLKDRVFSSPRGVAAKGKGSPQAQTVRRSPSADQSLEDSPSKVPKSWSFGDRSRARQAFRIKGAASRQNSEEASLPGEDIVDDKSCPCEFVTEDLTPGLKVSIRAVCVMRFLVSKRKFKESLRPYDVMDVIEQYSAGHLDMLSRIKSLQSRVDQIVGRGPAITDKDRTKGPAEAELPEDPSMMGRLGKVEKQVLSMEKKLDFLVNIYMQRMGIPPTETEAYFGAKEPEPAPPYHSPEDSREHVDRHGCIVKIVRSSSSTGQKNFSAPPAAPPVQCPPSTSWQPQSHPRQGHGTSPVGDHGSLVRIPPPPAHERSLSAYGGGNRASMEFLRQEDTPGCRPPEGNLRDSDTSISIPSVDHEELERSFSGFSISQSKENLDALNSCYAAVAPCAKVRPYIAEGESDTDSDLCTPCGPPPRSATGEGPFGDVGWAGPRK
Chain of Kv7.2/7.3 M-channel (O43525 whole entry): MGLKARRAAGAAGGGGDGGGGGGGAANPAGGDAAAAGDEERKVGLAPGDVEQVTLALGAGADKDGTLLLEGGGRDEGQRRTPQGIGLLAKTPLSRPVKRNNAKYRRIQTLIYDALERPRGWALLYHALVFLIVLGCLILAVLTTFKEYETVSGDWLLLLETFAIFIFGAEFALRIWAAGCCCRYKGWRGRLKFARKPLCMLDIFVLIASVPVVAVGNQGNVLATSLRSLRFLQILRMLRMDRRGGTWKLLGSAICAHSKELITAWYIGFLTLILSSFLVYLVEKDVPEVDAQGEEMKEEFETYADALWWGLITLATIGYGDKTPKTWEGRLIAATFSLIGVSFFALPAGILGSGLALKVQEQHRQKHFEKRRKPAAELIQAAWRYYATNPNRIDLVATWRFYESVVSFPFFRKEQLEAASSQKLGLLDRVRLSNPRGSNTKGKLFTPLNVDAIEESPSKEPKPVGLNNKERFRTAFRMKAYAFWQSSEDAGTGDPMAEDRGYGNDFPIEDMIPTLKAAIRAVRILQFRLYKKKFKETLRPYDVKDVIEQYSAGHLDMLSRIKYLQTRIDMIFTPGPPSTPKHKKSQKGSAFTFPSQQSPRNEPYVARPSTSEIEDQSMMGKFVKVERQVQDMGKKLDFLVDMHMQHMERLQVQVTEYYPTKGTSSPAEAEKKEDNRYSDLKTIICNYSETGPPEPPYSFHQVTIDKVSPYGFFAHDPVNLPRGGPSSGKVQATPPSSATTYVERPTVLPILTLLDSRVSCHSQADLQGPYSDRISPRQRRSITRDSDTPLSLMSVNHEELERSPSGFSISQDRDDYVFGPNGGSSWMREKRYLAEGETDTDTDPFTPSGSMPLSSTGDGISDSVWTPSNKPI
`CCCCCCCCc1ccc(CCC(N)(CO)COP(=O)(O)O)cc1` (stereo not drawn) [FTY720-P] gave an EC50 of 500 ± 1 nM. Turning to `CCCCCCCC/C=C\CCCCCCCC(=O)OC[C@@H](O)COP(=O)(O)O` [LPA], the EC50 worked out at 1500 ± 400 nM. This EC50 lies about 3-fold higher than the previous one. Under `CCCCCCCCCCCCC/C=C/[C@@H](O)[C@@H](N)COP(=O)(O)O` [S-1-P] stands 3200 ± 600 nM; under `CCCCCCCC(=O)OC[C@H](COP(=O)(O)O[C@H]1[C@H](O)[C@@H](OP(=O)(O)O)[C@H](OP(=O)(O)O)[C@@H](OP(=O)(O)O)[C@H]1O)OC(=O)CCCCCCC` [diC8PI(3,4,5)P3], 1100 ± 200 nM. In the case of `CCCCCCCC(=O)OC[C@H](COP(=O)(O)O[C@H]1[C@H](O)[C@@H](O)[C@H](OP(=O)(O)O)[C@@H](O)[C@H]1O)OC(=O)CCCCCCC` [diC8PI(4)P], the midpoint of the response, the EC50, lay at 1700 ± 300 nM. Consider `CCCCCCCC(=O)OC[C@H](COP(=O)(O)O[C@@H]1[C@H](O)[C@H](O)[C@@H](OP(=O)(O)O)[C@H](OP(=O)(O)O)[C@H]1O)OC(=O)CCCCCCC` [diC8PI(4,5)P2], for which a half-maximal effect (EC50) was put at 1100 ± 100 nM.
